Measurements: the Kinase Knowledgebase extract (Sharma et al. 2016)

How the values were obtained:
Experiment in all cases: Enzyme Assay
PIK3CG (human) = PIK3CG (human) (UniProt P48736)
PIK3CA (human) = PIK3CA (human) (UniProt P42336)
PIK3CD (Human) = PIK3CD (Human) (UniProt O00329)
PIK3CB (Human) = PIK3CB (Human) (UniProt P42338)
Sequence of PIK3CB (Human) (P42338 whole entry, looked up): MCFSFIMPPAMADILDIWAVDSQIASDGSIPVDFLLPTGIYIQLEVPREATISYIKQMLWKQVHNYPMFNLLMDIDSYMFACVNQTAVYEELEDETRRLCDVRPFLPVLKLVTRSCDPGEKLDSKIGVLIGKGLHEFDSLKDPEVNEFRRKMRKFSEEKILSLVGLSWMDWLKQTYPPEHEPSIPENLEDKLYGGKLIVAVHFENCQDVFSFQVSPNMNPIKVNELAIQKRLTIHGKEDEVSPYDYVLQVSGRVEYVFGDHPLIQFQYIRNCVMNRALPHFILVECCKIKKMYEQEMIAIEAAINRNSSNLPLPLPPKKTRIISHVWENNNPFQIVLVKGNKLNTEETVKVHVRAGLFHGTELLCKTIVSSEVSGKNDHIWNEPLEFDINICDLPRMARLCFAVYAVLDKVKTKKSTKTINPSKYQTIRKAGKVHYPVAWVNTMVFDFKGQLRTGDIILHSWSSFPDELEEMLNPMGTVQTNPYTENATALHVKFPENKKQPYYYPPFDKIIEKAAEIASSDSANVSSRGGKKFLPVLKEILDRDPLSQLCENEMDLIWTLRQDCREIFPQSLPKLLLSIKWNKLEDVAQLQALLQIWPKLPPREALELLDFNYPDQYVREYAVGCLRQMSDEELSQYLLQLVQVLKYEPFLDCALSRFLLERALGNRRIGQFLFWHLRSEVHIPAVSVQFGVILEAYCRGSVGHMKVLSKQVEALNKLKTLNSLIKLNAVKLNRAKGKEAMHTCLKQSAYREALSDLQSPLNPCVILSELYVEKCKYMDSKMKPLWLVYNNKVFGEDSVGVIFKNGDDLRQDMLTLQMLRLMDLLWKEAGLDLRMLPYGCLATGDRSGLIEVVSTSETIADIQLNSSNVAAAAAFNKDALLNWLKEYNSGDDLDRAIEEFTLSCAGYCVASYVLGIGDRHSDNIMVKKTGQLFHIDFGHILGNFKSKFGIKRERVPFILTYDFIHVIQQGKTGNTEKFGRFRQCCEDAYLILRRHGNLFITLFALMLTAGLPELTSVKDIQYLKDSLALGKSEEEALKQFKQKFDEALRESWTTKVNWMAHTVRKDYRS

Sequence of PIK3CA (human) (P42336 whole entry, looked up): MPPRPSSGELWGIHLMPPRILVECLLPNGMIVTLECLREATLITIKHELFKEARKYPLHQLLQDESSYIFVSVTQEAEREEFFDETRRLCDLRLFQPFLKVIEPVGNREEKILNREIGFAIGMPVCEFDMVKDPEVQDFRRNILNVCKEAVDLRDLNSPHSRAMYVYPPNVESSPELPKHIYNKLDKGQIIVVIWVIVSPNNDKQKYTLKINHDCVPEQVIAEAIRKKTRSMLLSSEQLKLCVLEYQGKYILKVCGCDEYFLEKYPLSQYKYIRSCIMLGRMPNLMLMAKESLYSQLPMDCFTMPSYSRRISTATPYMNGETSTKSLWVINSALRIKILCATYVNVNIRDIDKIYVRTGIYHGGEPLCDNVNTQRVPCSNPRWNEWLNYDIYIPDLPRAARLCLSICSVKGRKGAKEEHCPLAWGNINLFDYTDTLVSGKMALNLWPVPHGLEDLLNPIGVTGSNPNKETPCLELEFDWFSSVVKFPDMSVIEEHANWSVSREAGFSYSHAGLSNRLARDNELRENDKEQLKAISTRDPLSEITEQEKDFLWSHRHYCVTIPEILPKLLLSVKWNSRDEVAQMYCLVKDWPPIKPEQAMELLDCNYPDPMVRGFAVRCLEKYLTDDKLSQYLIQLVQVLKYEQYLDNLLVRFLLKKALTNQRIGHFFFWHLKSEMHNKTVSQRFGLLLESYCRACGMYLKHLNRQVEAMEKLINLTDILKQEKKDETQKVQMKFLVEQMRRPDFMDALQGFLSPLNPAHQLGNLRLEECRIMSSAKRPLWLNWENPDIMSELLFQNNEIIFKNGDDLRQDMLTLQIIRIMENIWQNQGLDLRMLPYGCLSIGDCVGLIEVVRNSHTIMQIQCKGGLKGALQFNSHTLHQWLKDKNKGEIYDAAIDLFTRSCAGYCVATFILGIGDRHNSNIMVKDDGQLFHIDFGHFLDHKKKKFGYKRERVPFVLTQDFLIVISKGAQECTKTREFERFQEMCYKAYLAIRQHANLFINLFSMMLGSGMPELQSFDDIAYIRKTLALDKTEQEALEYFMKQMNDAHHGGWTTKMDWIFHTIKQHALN
Sequence of PIK3CG (human) (P48736 whole entry, looked up): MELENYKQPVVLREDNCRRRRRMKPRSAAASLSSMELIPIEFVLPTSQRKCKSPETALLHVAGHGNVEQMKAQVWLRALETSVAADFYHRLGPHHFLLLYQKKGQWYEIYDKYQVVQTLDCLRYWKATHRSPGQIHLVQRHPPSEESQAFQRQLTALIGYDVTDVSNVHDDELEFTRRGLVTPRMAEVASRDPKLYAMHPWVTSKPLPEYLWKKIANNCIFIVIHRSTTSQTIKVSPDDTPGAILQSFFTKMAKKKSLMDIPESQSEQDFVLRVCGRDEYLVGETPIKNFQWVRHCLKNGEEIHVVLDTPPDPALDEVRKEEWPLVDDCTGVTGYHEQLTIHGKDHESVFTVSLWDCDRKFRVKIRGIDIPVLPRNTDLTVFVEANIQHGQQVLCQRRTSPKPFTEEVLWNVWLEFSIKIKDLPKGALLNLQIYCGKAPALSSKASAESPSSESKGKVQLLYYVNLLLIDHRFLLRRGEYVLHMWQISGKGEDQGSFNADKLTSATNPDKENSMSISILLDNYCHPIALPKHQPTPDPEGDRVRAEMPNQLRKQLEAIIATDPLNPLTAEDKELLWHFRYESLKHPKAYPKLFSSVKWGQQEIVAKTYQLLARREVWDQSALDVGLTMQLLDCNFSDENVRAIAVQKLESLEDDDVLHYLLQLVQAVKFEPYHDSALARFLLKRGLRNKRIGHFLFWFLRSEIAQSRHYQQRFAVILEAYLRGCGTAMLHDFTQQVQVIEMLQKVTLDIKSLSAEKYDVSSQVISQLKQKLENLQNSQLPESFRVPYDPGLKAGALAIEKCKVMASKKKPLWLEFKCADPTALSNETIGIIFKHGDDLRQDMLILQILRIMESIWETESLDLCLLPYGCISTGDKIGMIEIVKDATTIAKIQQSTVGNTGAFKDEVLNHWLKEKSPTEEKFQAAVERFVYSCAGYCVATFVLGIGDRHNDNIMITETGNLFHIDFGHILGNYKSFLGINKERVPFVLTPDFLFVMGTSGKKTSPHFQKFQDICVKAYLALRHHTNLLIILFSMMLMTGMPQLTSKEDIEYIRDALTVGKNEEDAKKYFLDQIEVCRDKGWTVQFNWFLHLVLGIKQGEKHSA
Sequence of PIK3CD (Human) (O00329 whole entry, looked up): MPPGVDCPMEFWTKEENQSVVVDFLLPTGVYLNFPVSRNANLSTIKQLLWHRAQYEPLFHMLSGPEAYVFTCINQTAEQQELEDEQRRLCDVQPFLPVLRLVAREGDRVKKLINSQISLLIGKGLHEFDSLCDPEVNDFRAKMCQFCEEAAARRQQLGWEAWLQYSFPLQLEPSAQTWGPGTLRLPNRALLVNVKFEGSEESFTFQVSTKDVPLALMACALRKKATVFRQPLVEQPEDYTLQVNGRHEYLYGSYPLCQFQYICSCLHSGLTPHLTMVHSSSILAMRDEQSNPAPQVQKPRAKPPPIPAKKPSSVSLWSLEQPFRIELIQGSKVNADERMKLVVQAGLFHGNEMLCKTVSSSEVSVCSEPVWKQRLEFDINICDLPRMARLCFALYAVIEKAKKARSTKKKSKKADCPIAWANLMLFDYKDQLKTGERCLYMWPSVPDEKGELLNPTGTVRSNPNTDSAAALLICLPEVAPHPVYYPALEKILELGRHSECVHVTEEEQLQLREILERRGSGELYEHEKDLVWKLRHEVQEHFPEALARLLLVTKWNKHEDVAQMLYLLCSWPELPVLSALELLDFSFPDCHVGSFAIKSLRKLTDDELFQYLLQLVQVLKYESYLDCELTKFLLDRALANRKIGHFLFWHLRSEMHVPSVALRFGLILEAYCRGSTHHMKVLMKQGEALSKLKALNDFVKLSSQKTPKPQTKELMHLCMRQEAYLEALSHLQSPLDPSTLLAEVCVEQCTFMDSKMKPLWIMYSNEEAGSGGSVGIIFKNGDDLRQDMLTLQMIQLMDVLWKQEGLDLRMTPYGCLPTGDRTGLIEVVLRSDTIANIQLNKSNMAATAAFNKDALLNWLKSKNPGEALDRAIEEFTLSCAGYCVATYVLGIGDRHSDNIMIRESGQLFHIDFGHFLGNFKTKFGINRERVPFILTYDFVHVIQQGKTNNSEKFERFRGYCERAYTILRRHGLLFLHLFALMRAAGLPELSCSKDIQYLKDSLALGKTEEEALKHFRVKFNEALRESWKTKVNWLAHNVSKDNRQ

| Compound | IC50 (PIK3CG (human)) | IC50 (PIK3CA (human)) | IC50 (PIK3CD (Human)) | IC50 (PIK3CB (Human)) |
| --- | --- | --- | --- | --- |
| Nc1cc(C(F)(F)F)c(-c2cc(N3CCN(c4ccccc4)C3=O)nc(N3CCOCC3)n2)cn1 | 8790 nM | 107 nM | 153 nM | 192 nM |
| Nc1cc(C(F)(F)F)c(-c2cc(N3CCCCC3=O)nc(N3CCOCC3)n2)cn1 | 5270 nM | 125 nM | 296 nM | 214 nM |
| Nc1ncc(-c2cc(N3CCOCC3)nc(N3CCOCC3)n2)c(C(F)(F)F)n1 | 464 nM |  | 80 nM |  |
| Nc1cc(C(F)(F)F)c(-c2cc(N3CCC(=O)CC3)nc(N3CCOCC3)n2)cn1 | 4320 nM | 359 nM | 692 nM | 1250 nM |
| Nc1ncc(-c2cc(N3C(=O)OC[C@@H]3CO)nc(N3CCOCC3)n2)c(C(F)(F)F)n1 | 529 nM | 21 nM | 17 nM | 6 nM |
| C[C@H]1[C@@H](CC(C)(C)O)OC(=O)N1c1cc(-c2cnc(N)nc2C(F)(F)F)nc(N2CCOCC2)n1.C[C@H]1[C@H](CC(C)(C)O)OC(=O)N1c1cc(-c2cnc(N)nc2C(F)(F)F)nc(N2CCOCC2)n1 | 290 nM | 5 nM |  | 124 nM |
| C[C@@H](O)C[C@H]1OC(=O)N(c2cc(-c3cnc(N)nc3C(F)(F)F)nc(N3CCOCC3)n2)[C@H]1C |  | 5 nM |  |  |
| C[C@H](O)C[C@H]1OC(=O)N(c2cc(-c3cnc(N)nc3C(F)(F)F)nc(N3CCOCC3)n2)[C@H]1C | 205 nM | 5 nM |  | 11 nM |
| Nc1cc(C(F)(F)F)c(-c2cc(N3CCS(=O)(=O)CC3)nc(N3CCOCC3)n2)cn1 | 4630 nM | 592 nM | 2320 nM | 2750 nM |
| Nc1ncc(-c2cc(N3C(=O)O[C@H]4[C@H](O)CC[C@H]43)nc(N3CCOCC3)n2)c(C(F)(F)F)n1 | 145 nM | 6 nM |  | 48 nM |
| Nc1cc(C(F)(F)F)c(-c2cc(N3CCOC(c4ccccc4)C3)nc(N3CCOCC3)n2)cn1 (stereo not given) |  | 134 nM | 1040 nM | 875 nM |
